Assay type in all cases: functional
For assay [1], the system named is Enterococcus faecium. The assay can be described thus: Antibacterial activity against gram positive vancomycin-resistant Enterococcus faecium OC 3312.
The subject of assay [2] is Enterococcus faecalis. The assay can be described thus: Antibacterial activity against gram positive vancomycin-susceptible Enterococcus faecalis ATCC 29212.
Assay [3] concerns Staphylococcus aureus. The assay can be described thus: Antibacterial activity against gram positive methicillin-resistant Staphylococcus aureus OC 2878.
Assay [4] relates to Staphylococcus aureus. The assay can be described thus: Antibacterial activity against gram positive methicillin-susceptible Staphylococcus aureus Smith OC 4172 by broth microdilution assay. On the technique in general: In broth dilution the organism is exposed to a series of concentrations in liquid medium.
The test system of assay [5] is Staphylococcus aureus. The assay can be described thus: Antibacterial activity against gram positive Staphylococcus aureus Smith OC 4172 in presence of 50% mouse serum.

As usually defined, the MIC is the smallest concentration in the dilution series that meets the test's criterion for growth inhibition.

In brackets after ≈: the same amount, converted by molar mass. Bounds are passed on as bounds.

Take `CC(=O)NC[C@H]1CN(c2ccc(-n3cc4cccnc4c3)c(F)c2)C(=O)O1`: the MIC in assay [1] stood at 1 µg/mL (≈ 2.71 µM); in assay [2] it was 1 µg/mL (≈ 2.71 µM); in assay [3] it was 0.5 µg/mL (≈ 1.36 µM); in assay [4], 1 µg/mL (≈ 2.71 µM); in assay [5], 2 µg/mL.

Regarding `CS/C(=N/C#N)NC[C@H]1CN(c2ccc(-n3cc4cccnc4c3)c(F)c2)C(=O)O1`, the MIC in assay [1] stood at 8 µg/mL (≈ 18.8 µM); in assay [2], 8 µg/mL (≈ 18.8 µM); in assay [3], 8 µg/mL (≈ 18.8 µM); in assay [4] it was 8 µg/mL (≈ 18.8 µM); in assay [5] it was 64 µg/mL.

With `O=C1O[C@@H](COc2cnccn2)CN1c1ccc(-n2cc3cccnc3c2)c(F)c1`, the minimal inhibitory concentration (MIC) in assay [1] was 64 µg/mL (≈ 158 µM); in assay [2], 64 µg/mL (≈ 158 µM); in assay [3] it was 8 µg/mL (≈ 19.7 µM); in assay [4], more than 32 µg/mL; in assay [5], more than 32 µg/mL.

For `O=C1O[C@@H](COc2ccon2)CN1c1ccc(-n2cc3cccnc3c2)c(F)c1`, the minimum inhibitory concentration (MIC) in assay [1] stood at 8 µg/mL (≈ 20.3 µM); in assay [2], 16 µg/mL (≈ 40.6 µM); in assay [3], 4 µg/mL (≈ 10.1 µM); in assay [4], 8 µg/mL (≈ 20.3 µM); in assay [5], 64 µg/mL.

`O=C1O[C@@H](COc2cnsn2)CN1c1ccc(-n2cc3cccnc3c2)c(F)c1`: the MIC in assay [1] amounted to 4 µg/mL (≈ 9.72 µM); in assay [2], 4 µg/mL (≈ 9.72 µM); in assay [3], 2 µg/mL (≈ 4.86 µM); in assay [4], 8 µg/mL (≈ 19.4 µM); in assay [5], 16 µg/mL.

As to `COC(=O)NC[C@H]1CN(c2ccc(N3Cc4cccnc4C3)c(F)c2)C(=O)O1`, the MIC in assay [1] amounted to 2 µg/mL (≈ 5.18 µM); in assay [2] it was 4 µg/mL (≈ 10.4 µM); in assay [3] it was 2 µg/mL (≈ 5.18 µM); in assay [4], 4 µg/mL (≈ 10.4 µM); in assay [5], 16 µg/mL.

For the compound `O=C1O[C@@H](COc2ccccn2)CN1c1ccc(N2Cc3cccnc3C2)c(F)c1`, the MIC in assay [1] was more than 64 µg/mL; in assay [2], more than 64 µg/mL; in assay [3] it was 32 µg/mL (≈ 78.7 µM); in assay [4], more than 128 µg/mL; in assay [5] it was more than 128 µg/mL.

As to `COC(=O)NC[C@H]1CN(c2ccc(-n3cc4cccnc4c3)c(F)c2)C(=O)O1`, the MIC in assay [1] was 16 µg/mL (≈ 41.6 µM); in assay [2], 16 µg/mL (≈ 41.6 µM); in assay [3] it was 16 µg/mL (≈ 41.6 µM); in assay [4], 16 µg/mL (≈ 41.6 µM); in assay [5] it was 32 µg/mL.

Consider `CS(=O)(=O)NC[C@H]1CN(c2ccc(N3Cc4cccnc4C3)c(F)c2)C(=O)O1`, for which the MIC in assay [1] is 4 µg/mL (≈ 9.84 µM); in assay [2] it was 8 µg/mL (≈ 19.7 µM); in assay [3], 2 µg/mL (≈ 4.92 µM); in assay [4], 4 µg/mL (≈ 9.84 µM); in assay [5] it was 16 µg/mL.

For `O=C1O[C@@H](COc2ccon2)CN1c1ccc(N2Cc3cccnc3C2)c(F)c1`, the MIC in assay [1] was 16 µg/mL (≈ 40.4 µM); in assay [2] it was more than 32 µg/mL; in assay [3], 8 µg/mL (≈ 20.2 µM); in assay [4], more than 32 µg/mL; in assay [5], more than 64 µg/mL.

As for `N#Cc1ccc(OC[C@H]2CN(c3ccc(-n4cc5cccnc5c4)c(F)c3)C(=O)O2)nc1`, the minimal inhibitory concentration (MIC) in assay [1] was more than 64 µg/mL; in assay [2], more than 32 µg/mL; in assay [3], more than 64 µg/mL; in assay [4], more than 128 µg/mL; in assay [5], more than 128 µg/mL.

Turning to `Cc1cccc(OC[C@H]2CN(c3ccc(N4Cc5cccnc5C4)c(F)c3)C(=O)O2)n1`, the MIC in assay [1] was more than 64 µg/mL; in assay [2], more than 32 µg/mL; in assay [3] it was more than 128 µg/mL; in assay [4], more than 128 µg/mL; in assay [5] it was more than 128 µg/mL.

Take `O=C1O[C@@H](C/N=C/NN[N+](=O)[O-])CN1c1ccc(N2Cc3cccnc3C2)c(F)c1`: the MIC in assay [1] was determined as 8 µg/mL (≈ 19.3 µM); in assay [2], 16 µg/mL (≈ 38.5 µM); in assay [3], 8 µg/mL (≈ 19.3 µM); in assay [4], 8 µg/mL (≈ 19.3 µM); in assay [5] it was 16 µg/mL.

On to `O=C(NC[C@H]1CN(c2ccc(N3Cc4cccnc4C3)c(F)c2)C(=O)O1)C1CCC1`, for which the minimal inhibitory concentration (MIC) came out at 8 µg/mL (≈ 19.5 µM) in assay [1]; 8 µg/mL (≈ 19.5 µM) in assay [2]; 4 µg/mL (≈ 9.75 µM) in assay [3]; 8 µg/mL (≈ 19.5 µM) in assay [4]; 32 µg/mL in assay [5].

On to `C/C(=N\C#N)NC[C@H]1CN(c2ccc(N3Cc4cccnc4C3)c(F)c2)C(=O)O1`, for which the MIC in assay [1] was determined as 4 µg/mL (≈ 10.1 µM); in assay [2], 4 µg/mL (≈ 10.1 µM); in assay [3], 2 µg/mL (≈ 5.07 µM); in assay [4] it was 2 µg/mL (≈ 5.07 µM); in assay [5] it was 8 µg/mL.

In the case of `O=C(CO)NC[C@H]1CN(c2ccc(N3Cc4cccnc4C3)c(F)c2)C(=O)O1`, the MIC was 16 µg/mL (≈ 41.4 µM) in assay [1]; 32 µg/mL (≈ 82.8 µM) in assay [2]; 16 µg/mL (≈ 41.4 µM) in assay [3]; 32 µg/mL (≈ 82.8 µM) in assay [4]; 32 µg/mL in assay [5].

Take `CCC(=O)NC[C@H]1CN(c2ccc(-n3cc4cccnc4c3)c(F)c2)C(=O)O1`: the MIC in assay [1] is 16 µg/mL (≈ 41.8 µM); in assay [2], 16 µg/mL (≈ 41.8 µM); in assay [3] it was 16 µg/mL (≈ 41.8 µM); in assay [4] it was 32 µg/mL (≈ 83.7 µM); in assay [5], 32 µg/mL.

As to `O=C1O[C@@H](Cn2ccccc2=O)CN1c1ccc(N2Cc3cccnc3C2)c(F)c1`, the MIC is more than 32 µg/mL in assay [1]; more than 32 µg/mL in assay [2]; 16 µg/mL (≈ 39.4 µM) in assay [3]; more than 32 µg/mL in assay [4]; 64 µg/mL in assay [5].

With `CCC(=O)NC[C@H]1CN(c2ccc(N3Cc4cccnc4C3)c(F)c2)C(=O)O1`, the MIC in assay [1] is 2 µg/mL (≈ 5.2 µM); in assay [2], 2 µg/mL (≈ 5.2 µM); in assay [3], 1 µg/mL (≈ 2.6 µM); in assay [4] it was 2 µg/mL (≈ 5.2 µM); in assay [5], 4 µg/mL.

As for `O=C(NC[C@H]1CN(c2ccc(N3Cc4cccnc4C3)c(F)c2)C(=O)O1)C1CC1`, the MIC in assay [1] was found to be 2 µg/mL (≈ 5.05 µM); in assay [2] it was 2 µg/mL (≈ 5.05 µM); in assay [3], 2 µg/mL (≈ 5.05 µM); in assay [4], 2 µg/mL (≈ 5.05 µM); in assay [5], 4 µg/mL.

`CC(=O)OCC(=O)NC[C@H]1CN(c2ccc(N3Cc4cccnc4C3)c(F)c2)C(=O)O1`: the MIC in assay [1] was found to be 16 µg/mL (≈ 37.3 µM); in assay [2], 16 µg/mL (≈ 37.3 µM); in assay [3], 128 µg/mL (≈ 299 µM); in assay [4], 32 µg/mL (≈ 74.7 µM); in assay [5], 32 µg/mL.

For `CCOC(=O)NC[C@H]1CN(c2ccc(N3Cc4cccnc4C3)c(F)c2)C(=O)O1`, the minimal inhibitory concentration (MIC) in assay [1] was 8 µg/mL (≈ 20 µM); in assay [2], 8 µg/mL (≈ 20 µM); in assay [3], 4 µg/mL (≈ 9.99 µM); in assay [4] it was 8 µg/mL (≈ 20 µM); in assay [5] it was 64 µg/mL.

For the compound `O=C1O[C@@H](COc2cnccn2)CN1c1ccc(N2Cc3cccnc3C2)c(F)c1`, the MIC in assay [1], in assay [2], in assay [3], in assay [4] and in assay [5] was more than 32 µg/mL in each case.

In the case of `O=C1O[C@@H](Cn2ccccc2=O)CN1c1ccc(-n2cc3cccnc3c2)c(F)c1`, the minimum inhibitory concentration (MIC) in assay [1], in assay [2], in assay [3], in assay [4] and in assay [5] was more than 128 µg/mL in each case.

Take `CS(=O)(=O)NC[C@H]1CN(c2ccc(-n3cc4cccnc4c3)c(F)c2)C(=O)O1`: the MIC in assay [1], in assay [2], in assay [3], in assay [4] and in assay [5] was more than 64 µg/mL each time.

For the compound `O=C(NC[C@H]1CN(c2ccc(-n3cc4cccnc4c3)c(F)c2)C(=O)O1)C1CC1`, the MIC stood at 8 µg/mL (≈ 20.3 µM) in assay [1]; 16 µg/mL (≈ 40.6 µM) in assay [2]; 8 µg/mL (≈ 20.3 µM) in assay [3]; 8 µg/mL (≈ 20.3 µM) in assay [4]; 16 µg/mL in assay [5].

Take `O=C1O[C@@H](COc2cnsn2)CN1c1ccc(N2Cc3cccnc3C2)c(F)c1`: the MIC in assay [1] worked out at 2 µg/mL (≈ 4.84 µM); in assay [2], 8 µg/mL (≈ 19.4 µM); in assay [3], 1 µg/mL (≈ 2.42 µM); in assay [4], 2 µg/mL (≈ 4.84 µM); in assay [5], 8 µg/mL.

Consider `CS/C(=N\C#N)NC[C@H]1CN(c2ccc(N3Cc4cccnc4C3)c(F)c2)C(=O)O1`, for which the MIC turned out to be 2 µg/mL (≈ 4.69 µM) in assay [1]; 4 µg/mL (≈ 9.38 µM) in assay [2]; 2 µg/mL (≈ 4.69 µM) in assay [3]; 2 µg/mL (≈ 4.69 µM) in assay [4]; 8 µg/mL in assay [5].

Turning to `N#Cc1ccc(OC[C@H]2CN(c3ccc(N4Cc5cccnc5C4)c(F)c3)C(=O)O2)nc1`, the MIC in assay [1] was more than 64 µg/mL; in assay [2], more than 16 µg/mL; in assay [3], more than 64 µg/mL; in assay [4], more than 64 µg/mL; in assay [5], more than 64 µg/mL.

As for `O=C1O[C@@H](C/N=C/NN[N+](=O)[O-])CN1c1ccc(-n2cc3cccnc3c2)c(F)c1`, the minimal inhibitory concentration (MIC) was 32 µg/mL (≈ 77.4 µM) in assay [1]; 32 µg/mL (≈ 77.4 µM) in assay [2]; more than 128 µg/mL in assay [3]; 64 µg/mL (≈ 155 µM) in assay [4]; 128 µg/mL in assay [5].

For the compound `Cc1cccc(OC[C@H]2CN(c3ccc(-n4cc5cccnc5c4)c(F)c3)C(=O)O2)n1`, the MIC in assay [1] was more than 128 µg/mL; in assay [2] it was more than 64 µg/mL; in assay [3] it was more than 64 µg/mL; in assay [4], more than 128 µg/mL; in assay [5] it was more than 128 µg/mL.

Turning to `CC(=O)NC[C@H]1CN(c2ccc(N3Cc4cccnc4C3)c(F)c2)C(=O)O1`, the MIC in assay [1] worked out at 0.5 µg/mL (≈ 1.35 µM); in assay [2], 0.5 µg/mL (≈ 1.35 µM); in assay [3], 0.25 µg/mL (≈ 0.675 µM); in assay [4] it was 0.5 µg/mL (≈ 1.35 µM); in assay [5], 1 µg/mL.

In the case of `CC(=O)NC[C@H]1CN(c2ccc(N3CCOCC3)c(F)c2)C(=O)O1` [LINEZOLID], the MIC in assay [1] came to 2 µg/mL (≈ 5.93 µM); in assay [3], 1 µg/mL (≈ 2.96 µM).

The values above are taken from ChEMBL document CHEMBL1146886, “Antibacterial activity of pyrrolopyridine-substituted oxazolidinones: synthesis and in vitro SAR of various C-5 acetamide replacements” (2006).
